Reference: PMC9387934, “Randomized single oral dose phase 1 study of safety, tolerability, and pharmacokinetics of Iminosugar UV-4 Hydrochloride (UV-4B) in healthy subjects” (PLoS Neglected Tropical Diseases, 2022)
Counter-ions that a name gives are not always drawn.

Key:
[1] = animal studies; cited from earlier work
[2] = Phase 1a single ascending dose study: UV-4 in pooled urine, urinary recovery and renal clearance; type: in vivo, human; details: for CL renal: human, po; for Cumulative Amount Ae(0-last): corresponds to Ae(0-48); for Cumulative Percent fe(0-last): corresponds to fe(0-48)
Description: Serial blood samples were collected at pre-dose (0 hour) and 0.5, 1, 1.5, 2, 2.5, 3, 4, 6, 9, 12, 18, 24, 36, and 48 hours post-dose for assessment of UV-4 concentrations in plasma. Pooled urine samples were collected at pre-dose (-12 to 0 hour) and from 0 to 6, 6 to 12, 12 to 24, and 24 to 48 hours post-dose for assessment of UV-4 concentrations in urine. Plasma and urine concentrations of UV-4 were determined by means of validated, sensitive, and specific high-performance liquid chromatography/tandem mass spectrometric (LC-MS/MS) assays. UV-4 plasma and urine concentrations and PK parameters were listed and summarized by dose, as appropriate. Only the 48 subjects who received active investigational product were included in the PK analysis population.
8.2.3 Specimen Preparation, Handling, and Shipping
8.2.3.1 Instructions for Specimen Preparation, Handling, and Storage
The collected PK blood samples (2 mL) will be placed on ice after blood draw, and within 1 hour centrifuged at room temperature at approximately 3000 revolutions per minute for 15 minutes. Plasma will then be harvested and split into 4 aliquots of approximately 250 μ L and stored frozen at -20°C until shipped.
Urine samples (approximately 10 mL) for determination of UV-4 concentrations in urine will be taken from the total volume provided during each collection period. The total volume of each urine collection will be recorded along with the start/stop time for each urine collection interval.
Analysis of plasma and urine for UV-4 will be performed by the qualified bioanalytical laboratory, Quintiles Bioservices, Inc., Ithaca, New York 14950. Instructions for the proper preparation, handling, storage and shipping of specimens will be provided separately in a study-specific laboratory manual (i.e., Biopacket).
8.2.3.2 Specimen Shipment […]
The following single-dose urine PK parameters will be estimated from the UV-4 urine concentration-time data collected, as appropriate:
Ae Amount of UV-4 excreted in urine unchanged, calculated for each collection interval and cumulatively across intervals fe Fraction of UV-4 excreted in urine unchanged, calculated for each collection interval and cumulatively across intervals […]
Additional UV-4 PK parameters may be calculated at the discretion of the […]
Plasma concentrations and plasma and urine PK parameters will be summarized by treatment using descriptive statistics, as appropriate. Figures for the arithmetic mean (and SD) concentration-time data will be presented for all doses on both a linear and semi-logarithmic scale. Individual concentration-time data will be graphically presented on linear and semi-logarithmic scales. Scatter plots of individual and geometric mean PK parameters versus dose will be presented. Additional graphical presentations of PK data may be added at the discretion of the PK analyst.
Dose proportionality of Cmax, AUC(0-last), and AUC(0-inf) will be assessed graphically and statistically using the power model approach with the logarithm of PK parameters AUC(0-inf) and Cmax as the dependent variables and the logarithm of the dose as the independent variable: ([AUC(0-inf), AUC(0-last), or Cmax]=α *doseβ).
11.4.7 Deviation from Original Analysis Plan
Deviations from the formal statistical analysis plan will be noted in the final Clinical Study

[3] = urine, Cohort 1, 3 mg single oral dose, Ar Mean
[4] = urine, Cohort 1, 3 mg single oral dose, Median
[5] = urine, Cohort 2, 10 mg single oral dose, Ar Mean
[6] = urine, Cohort 2, 10 mg single oral dose, Median
[7] = urine, Cohort 3, 30 mg single oral dose, Ar Mean
[8] = urine, Cohort 3, 30 mg single oral dose, Median
[9] = urine, Cohort 4, 90 mg single oral dose, Ar Mean
[10] = urine, Cohort 4, 90 mg single oral dose, Median

For `COCCCCCCCCCN1C[C@H](O)[C@@H](O)[C@H](O)[C@H]1CO` [UV-4B, N-(9’-methoxynonyl)-1-deoxynojirimycin hydrochloride], the “Bioavailability of the hydrochloride salt” value [1] is listed as “high bioavailability”, the “fe(0-last)” value ([2]; 3 mg single oral dose, Ar Mean) is listed as 39.8% and the CL renal ([2]; both sexes, urine and plasma, 3 mg, 3 mg single oral dose, Ar Mean) is listed as 242 mL/min. The CL renal ([2]; both sexes, urine and plasma, 3 mg, 3 mg single oral dose, Geo Mean) was 238 mL/min, the CL renal ([2]; both sexes, urine and plasma, 1000 mg, 1000 mg single oral dose, Ar Mean) was 198 mL/min and the CL renal ([2]; both sexes, urine and plasma, 1000 mg, 1000 mg single oral dose, Geo Mean) was 195 mL/min. It also gave a CL renal ([2]; both sexes, urine, 10 mg, 10 mg single oral dose, Geo Mean) of 190 mL/min, a CL renal ([2]; both sexes, urine, 30 mg, 30 mg single oral dose, Ar Mean) of 210 mL/min and a CL renal ([2]; both sexes, urine, 30 mg, 30 mg single oral dose, Geo Mean) of 208 mL/min. The CL renal ([2]; both sexes, urine, 90 mg, 90 mg single oral dose, Ar Mean) was 228 mL/min, the CL renal ([2]; both sexes, urine, 90 mg, 90 mg single oral dose, Geo Mean) was 227 mL/min and the CL renal ([2]; both sexes, urine, 180 mg, 180 mg single oral dose, Ar Mean) was 233 mL/min. It also gave a CL renal ([2]; both sexes, urine, 180 mg, 180 mg single oral dose, Geo Mean) of 232 mL/min, a CL renal ([2]; both sexes, urine, 360 mg, 360 mg single oral dose, Ar Mean) of 235 mL/min and a CL renal ([2]; both sexes, urine, 360 mg, 360 mg single oral dose, Geo Mean) of 228 mL/min. For the same molecule, the CL renal ([2]; both sexes, urine, 720 mg, 720 mg single oral dose, Ar Mean) was 185 mL/min, the CL renal ([2]; both sexes, urine, 720 mg, 720 mg single oral dose, Geo Mean) was 182 mL/min and the CL renal ([2]; urine, 10 mg, 10 mg single oral dose, Ar Mean) was 195 mL/min. For the same molecule, the “By-Interval Amount Ae(0-6)” value [2, 3] was 0.607 mg, the “By-Interval Amount Ae(6-12)” value [2, 3] was 0.215 mg and the “By-Interval Amount Ae(12-24)” value [2, 3] was 0.202 mg. The “By-Interval Amount Ae(24-48)” value [2, 3] was 0.170 mg, the “Cumulative Amount Ae(0-12)” value [2, 3] was 0.822 mg and the “Cumulative Amount Ae(0-24)” value [2, 3] was 1.02 mg. For the same molecule, the “Cumulative Amount Ae(0-last)” value [2, 3] was 1.19 mg, the “By-Interval Amount Ae(0-6)” value [2, 4] was 0.624 mg and the “By-Interval Amount Ae(6-12)” value [2, 4] was 0.216 mg. For the same molecule, the “By-Interval Amount Ae(12-24)” value [2, 4] was 0.230 mg, the “By-Interval Amount Ae(24-48)” value [2, 4] was 0.173 mg and the “By-Interval Percent fe(0-6)” value [2, 4] was 20.8%. For the same molecule, the “By-Interval Percent fe(6-12)” value [2, 4] was 7.19%, the “By-Interval Percent fe(12-24)” value [2, 4] was 7.65% and the “By-Interval Percent fe(24-48)” value [2, 4] was 5.75%. The “Cumulative Amount Ae(0-12)” value [2, 4] was 0.892 mg, the “Cumulative Amount Ae(0-24)” value [2, 4] was 1.08 mg and the “Cumulative Percent fe(0-12)” value [2, 4] was 29.7%. For the same molecule, the “Cumulative Percent fe(0-24)” value [2, 4] was 36.0%, the “Cumulative Amount Ae(0-last)” value [2, 4] was 1.23 mg and the “Cumulative Percent fe(0-last)” value [2, 4] was 40.9%. The “By-Interval Amount Ae(0-6)” value [2, 5] was 2.67 mg, the “By-Interval Amount Ae(6-12)” value [2, 5] was 0.859 mg and the “By-Interval Amount Ae(12-24)” value [2, 5] was 0.608 mg. For the same molecule, the “By-Interval Amount Ae(24-48)” value [2, 5] was 0.503 mg, the “By-Interval Percent fe(0-6)” value [2, 5] was 26.7% and the “By-Interval Percent fe(6-12)” value [2, 5] was 8.59%. For the same molecule, the “By-Interval Percent fe(12-24)” value [2, 5] was 6.08%, the “By-Interval Percent fe(24-48)” value [2, 5] was 5.03% and the “Cumulative Amount Ae(0-12)” value [2, 5] was 3.53 mg. For the same molecule, the “Cumulative Amount Ae(0-24)” value [2, 5] was 4.13 mg, the “Cumulative Percent fe(0-12)” value [2, 5] was 35.3% and the “Cumulative Percent fe(0-24)” value [2, 5] was 41.3%. For the same molecule, the “Cumulative Amount Ae(0-last)” value [2, 5] was 4.64 mg, the “Cumulative Percent fe(0-last)” value [2, 5] was 46.4% and the “By-Interval Amount Ae(0-6)” value [2, 6] was 2.77 mg. The “By-Interval Amount Ae(6-12)” value [2, 6] was 0.883 mg, the “By-Interval Amount Ae(12-24)” value [2, 6] was 0.635 mg and the “By-Interval Amount Ae(24-48)” value [2, 6] was 0.503 mg. The “By-Interval Percent fe(0-6)” value [2, 6] was 27.7%, the “By-Interval Percent fe(6-12)” value [2, 6] was 8.83% and the “By-Interval Percent fe(12-24)” value [2, 6] was 6.35%. For the same molecule, the “By-Interval Percent fe(24-48)” value [2, 6] was 5.03%, the “Cumulative Amount Ae(0-12)” value [2, 6] was 3.71 mg and the “Cumulative Amount Ae(0-24)” value [2, 6] was 4.34 mg. For the same molecule, the “Cumulative Percent fe(0-12)” value [2, 6] was 37.1%, the “Cumulative Percent fe(0-24)” value [2, 6] was 43.4% and the “Cumulative Amount Ae(0-last)” value [2, 6] was 4.82 mg. For the same molecule, the “Cumulative Percent fe(0-last)” value [2, 6] was 48.2%, the “By-Interval Amount Ae(0-6)” value [2, 7] was 10.6 mg and the “By-Interval Amount Ae(6-12)” value [2, 7] was 2.45 mg. For the same molecule, the “By-Interval Amount Ae(12-24)” value [2, 7] was 1.61 mg, the “By-Interval Amount Ae(24-48)” value [2, 7] was 0.887 mg and the “By-Interval Percent fe(0-6)” value [2, 7] was 35.3%. The “By-Interval Percent fe(6-12)” value [2, 7] was 8.16%, the “By-Interval Percent fe(12-24)” value [2, 7] was 5.36% and the “By-Interval Percent fe(24-48)” value [2, 7] was 2.96%. For the same molecule, the “Cumulative Amount Ae(0-12)” value [2, 7] was 13.0 mg, the “Cumulative Amount Ae(0-24)” value [2, 7] was 14.6 mg and the “Cumulative Percent fe(0-12)” value [2, 7] was 43.4%. For the same molecule, the “Cumulative Percent fe(0-24)” value [2, 7] was 48.8%, the “Cumulative Amount Ae(0-last)” value [2, 7] was 15.5 mg and the “Cumulative Percent fe(0-last)” value [2, 7] was 51.7%. For the same molecule, the “By-Interval Amount Ae(0-6)” value [2, 8] was 10.5 mg, the “By-Interval Amount Ae(6-12)” value [2, 8] was 2.47 mg and the “By-Interval Amount Ae(12-24)” value [2, 8] was 1.55 mg. For the same molecule, the “By-Interval Amount Ae(24-48)” value [2, 8] was 0.96 mg, the “By-Interval Percent fe(0-6)” value [2, 8] was 34.9% and the “By-Interval Percent fe(6-12)” value [2, 8] was 8.24%. For the same molecule, the “By-Interval Percent fe(12-24)” value [2, 8] was 5.14%, the “By-Interval Percent fe(24-48)” value [2, 8] was 3.20% and the “Cumulative Amount Ae(0-12)” value [2, 8] was 12.9 mg. The “Cumulative Amount Ae(0-24)” value [2, 8] was 14.6 mg, the “Cumulative Percent fe(0-12)” value [2, 8] was 43.0% and the “Cumulative Percent fe(0-24)” value [2, 8] was 48.7%. For the same molecule, the “Cumulative Amount Ae(0-last)” value [2, 8] was 15.5 mg, the “Cumulative Percent fe(0-last)” value [2, 8] was 51.7% and the “By-Interval Amount Ae(0-6)” value [2, 9] was 38.1 mg. For the same molecule, the “By-Interval Amount Ae(6-12)” value [2, 9] was 6.05 mg, the “By-Interval Amount Ae(12-24)” value [2, 9] was 3.89 mg and the “By-Interval Amount Ae(24-48)” value [2, 9] was 1.61 mg. The “By-Interval Percent fe(0-6)” value [2, 9] was 42.2%, the “By-Interval Percent fe(6-12)” value [2, 9] was 6.72% and the “By-Interval Percent fe(12-24)” value [2, 9] was 4.32%. The “By-Interval Percent fe(24-48)” value [2, 9] was 1.79%, the “Cumulative Amount Ae(0-12)” value [2, 9] was 44.1 mg and the “Cumulative Amount Ae(0-24)” value [2, 9] was 48.0 mg. For the same molecule, the “Cumulative Percent fe(0-12)” value [2, 9] was 49.0%, the “Cumulative Percent fe(0-24)” value [2, 9] was 53.3% and the “Cumulative Amount Ae(0-last)” value [2, 9] was 49.6 mg. For the same molecule, the “Cumulative Percent fe(0-last)” value [2, 9] was 55.1%, the “By-Interval Amount Ae(0-6)” value [2, 10] was 39.3 mg and the “By-Interval Amount Ae(6-12)” value [2, 10] was 6.36 mg. The “By-Interval Amount Ae(12-24)” value [2, 10] was 4.01 mg.
